Test results taken from patent US5672715A, “Herbicidal substituted 3-aryl-pyrazoles” (Monsanto Company, priority 1995, dated 1997).
Like-named read-outs stand apart in the source and are kept apart here.

Tests used:
Type in all cases: in vivo
Soybean = assay: post-emergence herbicide test; conditions: Glycine max, post-emergence, read-out: % plant inhibition
Method in brief: (§1)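 Soil pans seeded, covered and leveled; grown in greenhouse 2–3 weeks. Sprayed individually (atomizer, 10 psig, 200 gallons/acre). Percent inhibition recorded.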

Velvetleaf = assay: post-emergence herbicide test; conditions: Abutilon theophrasti, post-emergence, read-out: % plant inhibition
Method in brief: as §1

Common Chickweed = assay: post-emergence herbicide test; conditions: post-emergence, read-out: % plant inhibition
Method in brief: as §1

Blackgrass = assay: post-emergence herbicide test; conditions: Alopecurus myosuroides, post-emergence, read-out: % plant inhibition; for inhibition at 7.95803 g/ha: 0.0071 lb/A; for inhibition at 40.0143 g/ha: 0.0357 lb/A; for inhibition at 200.072 g/ha: 0.1785 lb/A; for inhibition at 1000.92 g/ha: 0.893 lb/A
Method in brief: as §1

Corn = assay: post-emergence herbicide test; conditions: Zea mays, post-emergence, read-out: % plant inhibition
Method in brief: as §1

Bedstraw Catchweed = assay: post-emergence herbicide test; conditions: Galium aparine, post-emergence, read-out: % plant inhibition
Method in brief: as §1

Yellow Nutsedge = assay: post-emergence herbicide test; conditions: Cyperus, read-out: % plant inhibition
Method in brief: as §1

Cocklebur = assay: post-emergence herbicide test; conditions: Xanthium strumarium, post-emergence, read-out: % plant inhibition
Method in brief: as §1

Morning Glory [1] = assay: post-emergence herbicide test; conditions: Ipomoea, post-emergence, read-out: % plant inhibition
Method in brief: as §1

Barnyardgrass [2] = assay: post-emergence herbicide test; conditions: Echinochloa crus-galli, post-emergence, read-out: % plant inhibition
Method in brief: as §1

Wheat = assay: post-emergence herbicide test; conditions: Triticum aestivum, post-emergence, read-out: % plant inhibition
Method in brief: as §1

Yellow Foxtail = assay: post-emergence herbicide test; conditions: Setaria, read-out: % plant inhibition
Method in brief: as §1

Rice = assay: pre-emergence herbicide test; conditions: Oryza sativa, read-out: % plant inhibition
Method in brief: (§2)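 Read-out is percent inhibition at approximately 14 days after seeding and treating. Seeds sat on compacted topsoil beneath a cover layer containing compound in acetone or water, with greenhouse bottom-watering.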

Morning Glory [3] = assay: pre-emergence herbicide test; conditions: Ipomoea, pre-emergence, read-out: % plant inhibition
Method in brief: as §2

Barnyardgrass [4] = assay: pre-emergence herbicide test; conditions: Echinochloa crus-galli, pre-emergence, read-out: % plant inhibition
Method in brief: as §2

COc1cc(-c2nn(C)c(C(F)(F)F)c2C)c(F)cc1Cl [Compound 37]
inhibition at 7.95803 g/ha (Soybean; 0.0071 lb/A): 10%
inhibition at 40.0143 g/ha (Soybean; 0.0357 lb/A): 40%
inhibition at 200.072 g/ha (Soybean; 0.1785 lb/A): 40%
inhibition at 1000.92 g/ha (Soybean; 0.893 lb/A): 60%
inhibition at 7.95803 g/ha (Velvetleaf; 0.0071 lb/A): 25%
inhibition at 40.0143 g/ha (Velvetleaf; 0.0357 lb/A): 35%
inhibition at 200.072 g/ha (Velvetleaf; 0.1785 lb/A): 50%
inhibition at 1000.92 g/ha (Velvetleaf; 0.893 lb/A): 100%
inhibition at 7.95803 g/ha (Common Chickweed; 0.0071 lb/A): 0%
inhibition at 40.0143 g/ha (Common Chickweed; 0.0357 lb/A): 40%
inhibition at 200.072 g/ha (Common Chickweed; 0.1785 lb/A): 70%
inhibition at 1000.92 g/ha (Common Chickweed; 0.893 lb/A): 80%
inhibition at 7.95803 g/ha (Blackgrass; Table 4a): 0%
inhibition at 7.95803 g/ha (Blackgrass; Table 5a): 10%
inhibition at 40.0143 g/ha (Blackgrass; Table 4a): 0%
inhibition at 40.0143 g/ha (Blackgrass; Table 5a): 25%
inhibition at 200.072 g/ha (Blackgrass; Table 4a): 10%
inhibition at 200.072 g/ha (Blackgrass; Table 5a): 65%
inhibition at 1000.92 g/ha (Blackgrass; Table 4a): 15%
inhibition at 1000.92 g/ha (Blackgrass; Table 5a): 85%
inhibition at 7.95803 g/ha (Corn; 0.0071 lb/A): 5%
inhibition at 40.0143 g/ha (Corn; 0.0357 lb/A): 10%
inhibition at 200.072 g/ha (Corn; 0.1785 lb/A): 50%
inhibition at 1000.92 g/ha (Corn; 0.893 lb/A): 100%
inhibition at 7.95803 g/ha (Bedstraw Catchweed; 0.0071 lb/A): 20%
inhibition at 40.0143 g/ha (Bedstraw Catchweed; 0.0357 lb/A): 35%
inhibition at 200.072 g/ha (Bedstraw Catchweed; 0.1785 lb/A): 75%
inhibition at 1000.92 g/ha (Bedstraw Catchweed; 0.893 lb/A): 90%
inhibition at 7.95803 g/ha (Yellow Nutsedge; 0.0071 lb/A): 0%
inhibition at 40.0143 g/ha (Yellow Nutsedge; 0.0357 lb/A): 10%
inhibition at 200.072 g/ha (Yellow Nutsedge; 0.1785 lb/A): 15%
inhibition at 1000.92 g/ha (Yellow Nutsedge; 0.893 lb/A): 40%
inhibition at 7.95803 g/ha (Cocklebur; 0.0071 lb/A): 5%
inhibition at 40.0143 g/ha (Cocklebur; 0.0357 lb/A): 40%
inhibition at 200.072 g/ha (Cocklebur; 0.1785 lb/A): 55%
inhibition at 1000.92 g/ha (Cocklebur; 0.893 lb/A): 80%
inhibition at 7.95803 g/ha (Morning Glory [1]; 0.0071 lb/A): 0%
inhibition at 40.0143 g/ha (Morning Glory [1]; 0.0357 lb/A): 45%
inhibition at 200.072 g/ha (Morning Glory [1]; 0.1785 lb/A): 95%
inhibition at 1000.92 g/ha (Morning Glory [1]; 0.893 lb/A): 100%
inhibition at 7.95803 g/ha (Barnyardgrass [2]; 0.0071 lb/A): 0%
inhibition at 40.0143 g/ha (Barnyardgrass [2]; 0.0357 lb/A): 15%
inhibition at 200.072 g/ha (Barnyardgrass [2]; 0.1785 lb/A): 65%
inhibition at 1000.92 g/ha (Barnyardgrass [2]; 0.893 lb/A): 45%
inhibition at 7.95803 g/ha (Wheat; 0.0071 lb/A): 5%
inhibition at 40.0143 g/ha (Wheat; 0.0357 lb/A): 0%
inhibition at 200.072 g/ha (Wheat; 0.1785 lb/A): 10%
inhibition at 1000.92 g/ha (Wheat; 0.893 lb/A): 30%
inhibition at 7.95803 g/ha (Yellow Foxtail; 0.0071 lb/A): 0%
inhibition at 40.0143 g/ha (Yellow Foxtail; 0.0357 lb/A): 20%
inhibition at 200.072 g/ha (Yellow Foxtail; 0.1785 lb/A): 65%
inhibition at 1000.92 g/ha (Yellow Foxtail; 0.893 lb/A): 65%
inhibition at 7.95803 g/ha (Rice; 0.0071 lb/A): 25%
inhibition at 40.0143 g/ha (Rice; 0.0357 lb/A): 0%
inhibition at 200.072 g/ha (Rice; 0.1785 lb/A): 85%
inhibition at 1000.92 g/ha (Rice; 0.893 lb/A): 100%
inhibition at 7.95803 g/ha (Morning Glory [3]; 0.0071 lb/A): 80%
inhibition at 40.0143 g/ha (Morning Glory [3]; 0.0357 lb/A): 98%
inhibition at 200.072 g/ha (Morning Glory [3]; 0.1785 lb/A): 90%
inhibition at 280.212 g/ha (Morning Glory [3]; 0.25 lb/A): 98%
inhibition at 1000.92 g/ha (Morning Glory [3]; 0.893 lb/A): 100%
inhibition at 7.95803 g/ha (Barnyardgrass [4]; 0.0071 lb/A): 80%
inhibition at 40.0143 g/ha (Barnyardgrass [4]; 0.0357 lb/A): 100%
inhibition at 200.072 g/ha (Barnyardgrass [4]; 0.1785 lb/A): 100%
inhibition at 280.212 g/ha (Barnyardgrass [4]; 0.25 lb/A): 100%
inhibition at 1000.92 g/ha (Barnyardgrass [4]; 0.893 lb/A): 100%
